The results in this text go back to patent US20240279227A1, “FUSED HETEROCYCLIC DERIVATIVES” (Janssen Sciences Ireland Unlimited Company, priority 2021, published 2024).

Broadly, the CC50 is the concentration giving 50% cytotoxicity. A word on the EC50: it is the concentration that produces a half-maximal response.

One series concerns HepG2 or HepG2.117 cells. Nature of the series: Cytotoxicity, ATPlite Luminescence Assay. The series is classed as cell-based, human. The following applies: 3-days incubation unless marked with *, ATPlite viability. Put shortly:
(§1)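 HepG2/HepG2.117; compound exposure 3–4 d; viability readout = ATPlite luminescence.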

Another series deals with HBV. As to the kind of experiment: Anti-HBV activity in HepG2.117 cell line (intracellular HBV DNA, real-time PCR). The series is classed as cell-based, hepatitis B virus. The settings on record: HepG2.117 cells, HBV replication induced, 3 days of treatment, intracellular HBV DNA by real-time PCR. Put shortly: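 HepG2.117 cells (Tet-off, doxycycline-free HBV replication) induced for HBV replication, then exposed to serially diluted compound for 3 days. Intracellular HBV DNA quantified by real-time PCR with HBV-specific primers and probe.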
(In qPCR the cycle at which signal appears reflects the starting amount.)

Series [1] in a line: Human liver microsome stability. It is filed as in vitro ADME. The following applies: 1 μM compound, NADPH 1 mM, pH 7.4, 37° C., 0-60 min; for HLM Metabolism t1/2: pooled human liver microsomes 0.5 mg/mL; for half-life at 1 μM: human, pooled human liver microsomes, pH 7.4, pooled human liver microsomes 0.5 mg/mL, read-out: HLM Metabolism t1/2. The method, boiled down:
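Pooled human liver microsomes (0.5 mg/mL) incubated at 37 °C with 1 μM compound in 0.1 M phosphate pH 7.4, 1 mM MgCl2; 1 mM NADPH starts reaction. Samples quenched in acetonitrile at 0–60 min, analysed by LC-MS against internal standard; half-life from slope of ln peak-area ratio versus time.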

The nature of series [2]: Cytotoxicity, ATPlite Luminescence Assay. It is filed as cell-based, human. The settings on record: human, HepG2 or HepG2.117 cells, 3-days incubation unless marked with *, ATPlite viability. Put shortly: as §1
The mark [3] stands for this setting: Hepatitis B virus, HepG2.117, 72 h.

The structures appear in SMILES notation.

In the series with HepG2 or HepG2.117 cells, `CNC(=O)[C@@H]1CN(C(C)c2ccc(-n3nnc(C)n3)cc2)C(=O)c2c3c(nn21)C[C@@H](C)N(C(=O)c1ccc(Cl)c(Cl)c1)C3` (single isomer, unassigned) [Compound 30B, (3R,7S)-2-(3,4-dichlorobenzoyl)-N,3-dimethyl-9-((S*)-1-(4-(5-methyl-2H-tetrazol-2-yl)phenyl)ethyl)-10-oxo-1,2,3,4,7,8,9,10-octahydropyrido[4′,3′:3,4]pyrazolo[1,5-a]pyrazine-7-carboxamide] came in with a half-maximal cytotoxic concentration (CC50) of 17.2 µM. In the series on HBV, this compound registered an EC50 of 0.017 µM. In addition, the “HLM Metabolism t1/2” value in series [1] came to 1.52 h.

In turn, `CNC(=O)[C@@H]1CN(C(C)c2ccc(N3CCCC3=O)nc2)C(=O)c2c3c(nn21)C[C@@H](C)N(C(=O)c1ccc(Cl)c(Cl)c1)C3` (single isomer, unassigned) [Compound 34A, (3R,7S)-2-(3,4-Dichlorobenzoyl)-N,3-dimethyl-10-oxo-9-((R*)-1-(6-(2-oxopyrrolidin-1-yl)pyridin-3-yl)ethyl)-1,2,3,4,7,8,9,10-octahydropyrido[4′,3′:3,4]pyrazolo[1,5-a]pyrazine-7-carboxamide] yielded a CC50 in series [2] of more than 50 µM. The compound further came in with an EC50 in the series on HBV (setting [3]) of 0.38 µM. Also, in series [1], the half-life at 1 μM was determined as 1.83 h.

For `CNC(=O)[C@@H]1CN(C(C)c2ccnc(C(F)(F)F)c2)C(=O)c2c3c(nn21)C[C@@H](C)N(C(=O)c1ccc(Cl)c(Cl)c1)C3` (single isomer, unassigned) [Compound 9B, (3R,7S)-2-(3,4-Dichlorobenzoyl)-N,3-dimethyl-10-oxo-9-((S*)-1-(2-(trifluoromethyl)pyridin-4-yl)ethyl)-1,2,3,4,7,8,9,10-octahydropyrido[4′,3′:3,4]pyrazolo[1,5-a]pyrazine-7-carboxamide], the CC50 in series [2] is more than 50 µM. The same compound gave an EC50 in the series with HBV (setting [3]) of 0.061 µM. Besides, the half-life at 1 μM in series [1] is more than 3 h.

On to `CC(c1ccc(OC(F)F)cc1)N1C[C@@H](C(=O)NC2CC2)n2nc3c(c2C1=O)CN(C(=O)c1ccc(Cl)c(C#N)c1)[C@H](C)C3` (single isomer, unassigned) [Compound 26A, (3R,7S)-2-(4-Chloro-3-cyanobenzoyl)-N-cyclopropyl-9-((R*)-1-(4-(difluoromethoxy)phenyl)ethyl)-3-methyl-10-oxo-1,2,3,4,7,8,9,10-octahydropyrido[4′,3′:3,4]pyrazolo[1,5-a]pyrazine-7-carboxamide], for which the 50% cytotoxic concentration (CC50) in series [2] was determined as 29.7 µM. This compound also returned a 50% effective concentration (EC50) in the series on HBV of 0.19 µM. In addition, the “HLM Metabolism t1/2” value in series [1] was more than 3 h.

Regarding `CNC(=O)[C@@H]1CN([C@@H](C)c2ccc(C(F)(F)F)nc2)C(=O)c2c3c(nn21)C[C@@H](C)N(C(=O)c1ccc(Cl)c(C(F)(F)F)c1)C3` [Compound 15B, (3R,7S)-2-(4-chloro-3-(trifluoromethyl)benzoyl)-N,3-dimethyl-10-oxo-9-((S)-1-(6-(trifluoromethyl)pyridin-3-yl)ethyl)-1,2,3,4,7,8,9,10-octahydropyrido[4′,3′:3,4]pyrazolo[1,5-a]pyrazine-7-carboxamide], the CC50 in series [2] turned out to be 29.8 µM. In the series with HBV (setting [3]), this compound registered an EC50 of 0.029 µM. Also, the half-life at 1 μM in series [1] is more than 3 h.

Compound `CNC(=O)[C@@H]1CN(C(C)c2ccc(NCC(F)(F)F)nc2)C(=O)c2c3c(nn21)C[C@@H](C)N(C(=O)c1ccc(Cl)c(Cl)c1)C3` (single isomer, unassigned) [Compound 33A, (3R,7S)-2-(3,4-Dichlorobenzoyl)-N,3-dimethyl-10-oxo-9-((R*)-1-(6-((2,2,2-trifluoroethyl)amino)pyridin-3-yl)ethyl)-1,2,3,4,7,8,9,10-octahydropyrido[4′,3′:3,4]pyrazolo[1,5-a]pyrazine-7-carboxamide] gave a CC50 in series [2] of more than 50 µM. The compound further returned an EC50 in the series with HBV (setting [3]) of 0.062 µM. Further, in series [1], the “HLM Metabolism t1/2” value stood at 0.798 h.

`CNC(=O)[C@@H]1CN(Cc2ccc(OC(F)F)cc2)C(=O)c2c3c(nn21)C[C@@H](C)N(C(=O)c1ccc(Cl)c(Cl)c1)C3` [Compound 17, (3R,7S)-2-(3,4-Dichlorobenzoyl)-9-(4-(difluoromethoxy)benzyl)-N,3-dimethyl-10-oxo-1,2,3,4,7,8,9,10-octahydropyrido[4′,3′:3,4]pyrazolo[1,5-a]pyrazine-7-carboxamide]: it took 39.1 µM to reach half-maximal cytotoxicity in series [2] (CC50). The EC50 in the series on HBV (setting [3]) turned out to be 0.036 µM. The half-life at 1 μM in series [1] was more than 3 h.

In series [2], `CNC(=O)[C@@H]1CN(C(C)c2ccc(C(F)F)nc2)C(=O)c2c3c(nn21)C[C@@H](C)N(C(=O)c1ccc(Cl)c(Cl)c1)C3` (single isomer, unassigned) [Compound 36A, (3R,7S)-2-(3,4-Dichlorobenzoyl)-9-((R*)-1-(6-(difluoromethyl)pyridin-3-yl)ethyl)-N,3-dimethyl-10-oxo-1,2,3,4,7,8,9,10-octahydropyrido[4′,3′:3,4]pyrazolo[1,5-a]pyrazine-7-carboxamide] returned a 50% cytotoxic concentration (CC50) of more than 50 µM. This compound also returned an EC50 in the series on HBV (setting [3]) of 0.086 µM. In addition, the half-life at 1 μM in series [1] is more than 3 h.

Turning to `CNC(=O)[C@@H]1CN(C(C)c2ccc(C(C)(C)O)nc2)C(=O)c2c3c(nn21)C[C@@H](C)N(C(=O)c1ccc(Cl)c(Cl)c1)C3` (single isomer, unassigned) [Compound 3B, (3R,7S)-2-(3,4-Dichlorobenzoyl)-9-((S*)-1-(6-(2-hydroxypropan-2-yl)pyridin-3-yl)ethyl)-N,3-dimethyl-10-oxo-1,2,3,4,7,8,9,10-octahydropyrido[4′,3′:3,4]pyrazolo[1,5-a]pyrazine-7-carboxamide], in series [2], the CC50 was more than 50 µM. It took 0.051 µM to reach a half-maximal effect in the series on HBV (setting [3]) (EC50). Besides, the half-life at 1 μM in series [1] was more than 3 h.

As for `CNC(=O)[C@@H]1CN(C(C)c2cc(F)ccn2)C(=O)c2c3c(nn21)C[C@@H](C)N(C(=O)c1ccc(Cl)c(Cl)c1)C3` (single isomer, unassigned) [Compound 42A, (3R,7S)-2-(3,4-Dichlorobenzoyl)-9-((R*)-1-(4-fluoropyridin-2-yl)ethyl)-N,3-dimethyl-10-oxo-1,2,3,4,7,8,9,10-octahydropyrido[4′,3′:3,4]pyrazolo[1,5-a]pyrazine-7-carboxamide], in series [2], the CC50 is more than 50 µM. In the series on HBV, this compound registered an EC50 of 0.28 µM. Besides, the half-life at 1 μM in series [1] was more than 3 h.

The compound `CNC(=O)[C@@H]1CN([C@H](C)c2ccc(OC(F)F)cc2)C(=O)c2c3c(nn21)C[C@@H](C)N(C(=O)c1ccc(Cl)c(Cl)c1)C3` [Compound 16A, (3R,7S)-2-(3,4-dichlorobenzoyl)-9-((R)-1-(4-(difluoromethoxy)phenyl)ethyl)-N,3-dimethyl-10-oxo-1,2,3,4,7,8,9,10-octahydropyrido[4′,3′:3,4]pyrazolo[1,5-a]pyrazine-7-carboxamide] returned a cytotoxic concentration (CC50) in series [2] of 40.4 µM. For the same compound, the EC50 in the series with HBV (setting [3]) was determined as 0.021 µM. In series [1], the half-life at 1 μM is more than 3 h.

`CCC(c1ccc(S(C)(=O)=O)cc1)N1C[C@@H](C(=O)NC)n2nc3c(c2C1=O)CN(C(=O)c1ccc(Cl)c(Cl)c1)[C@H](C)C3` (single isomer, unassigned) [Compound 22A, (3R,7S)-2-(3,4-Dichlorobenzoyl)-N,3-dimethyl-9-((R*)-1-(4-(methylsulfonyl)phenyl)propyl)-10-oxo-1,2,3,4,7,8,9,10-octahydropyrido[4′,3′:3,4]pyrazolo[1,5-a]pyrazine-7-carboxamide] displayed a CC50 in series [2] of more than 50 µM. For the same compound, in the series with HBV, the concentration giving a half-maximal response (EC50) was found to be 0.27 µM. Besides, in series [1], the half-life at 1 μM is more than 3 h.
